Test system: 3′UTR of fog2 mRNA
Assay: luciferase assay with wild-type or mutated miR-200 target sites of FOG2 3′UTR
Assay type: cell-based, human
Conditions: Hela cell lines, compared to siGFP
Description: The inventors examined whether human miR-200 family miRNAs regulate the expression by directly binding to 3′ UTR of fog2 mRNA in the same manner as drosophila miR-8 miRNA regulates the expression by directly binding to 3′ UTR of ush mRNA. Specifically, in order to obtain cDNA of FOG2, represented by SEQ ID: 110, from K562 cell lines, total RNA was extracted using RNeasy mini kit (QIAGEN, US). Then, 1 μg of total RNA and 1 μl of Oligo-dT (Invitrogen, US) were charged with up to 50 μl of distilled water, and placed into SuperScript First-Strand Synthesis System (Invitrogen, US), followed by RT-PCR reaction. […] By using pCK-FOG2, primers noted in Table 8, and QuickChange Site-Directed Mutagenesis kit, one (FOG2 m1, FOG2 m2, FOG2 m3), two ((FOG2 m12, FOG2 m23) or three (FOG2 m123) mutants were introduced into three miR-200 target sites of FOG2 3′UTR. Hela cell lines were transfected with wild-type FOG2(FOG2 wt), FOG2 ml, FOG2 m2, FOG2 m3, FOG2 m12, FOG2 m23 or FOG2 m123, together with renilla luciferase expression vector and synthesized siGFP, miR-141/200a or miR-200b/c/429. Then, the activity of luciferase was measured in the same manner as described in Example 8-2. The synthesized miRNA include a mixture of the same levels of miRNAs including respective seed sequences. […]

| Substance | expression of luciferase, FOG2 3′UTR |
| --- | --- |
| 5′-UAACACUGUCUGGUAAAGAUGG-3′ (listed as RNA, chemistry not given here) [miR-141] | suppressed the expression of luciferase, albeit less effectively than the other members did |
| 5′-UAACACUGUCUGGUAACGAUGU-3′ (listed as RNA, chemistry not given here) [miR-200a] | suppressed the expression of luciferase, albeit less effectively than the other members did |
